The results in this text go back to patent US20260092071A1, “COMPOUNDS AND COMPOSITIONS AS SMARCA2/4 DEGRADERS AND USES THEREOF” (REGENTS OF THE UNIVERSITY OF MICHIGAN, priority 2022, published 2026).

One test concerns the target SMARCA4 (Homo sapiens, UniProt P51532). Briefly: HiBiT assay for protein degradation, Hela SMARCA4-HiBiT cells (A series). It counts as cell-based. Also noted: fuse HiBiT to the carboxy terminus of SMARCA2 (Promega CS302365) or SMARCA4 (Promega CS3023225); host or cells: HeLa (CRISPR/Cas9 HiBiT knock-in). The settings on record: for DC50: read-out: SMARC A4 Hela HiBit DC50. A digest of the protocol:
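SMARCA4 degradation was measured in HeLa cells in which HiBiT had been knocked into the SMARCA4 carboxy terminus via CRISPR/Cas9 (Promega CS3023225). Cells were maintained in DMEM with FBS and penicillin-streptomycin. At the end of treatment, SMARCA4 levels were read by lytic HiBiT luminescence (Nano-Glo®, Promega N3050), and data were analyzed with GraphPad Prism.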
On the technique in general: The HiBiT peptide binds its large partner to form an active luciferase.

For the next test, the target named is SMARCA2 (Homo sapiens, UniProt P51531). Nature of the test: HiBiT assay for protein degradation, Hela SMARCA2-HiBiT cells (A series). It counts as cell-based. Also noted: Hela cells were genetically modified via CRISPR/Cas9 to fuse HiBiT to the carboxy terminus of SMARCA2; host or cells: HeLa (CRISPR/Cas9 HiBiT knock-in). To be noted: for DC50: read-out: SMARC A2 Hela HiBit DC50; for Dmax: read-out: SMARC A2 Hela HiBit Dmax (%). A digest of the protocol:
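SMARCA2 degradation was measured in HeLa cells whose endogenous SMARCA2 carries a carboxy-terminal HiBiT tag introduced by CRISPR/Cas9 (Promega CS302365). Cells were maintained in DMEM with FBS and penicillin-streptomycin. SMARCA2 levels were read at the end of the experiment by Nano-Glo® HiBiT lytic luminescence (Promega N3050) and analyzed in GraphPad Prism.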

[1] abbreviates: Hela SMARCA4-HiBiT cells, 24 hours treatment.
[2] abbreviates: Hela SMARCA4-HiBiT cells, 24 hours treatment, read-out: SMARC A4 Hela HiBit Dmax.
[3] abbreviates: Hela SMARCA2-HiBiT cells, 24 hours treatment.

Where two headings read alike, the source gives them in different places. Some results are limits rather than exact numbers.

Chain of SMARCA2 (P51531 whole entry): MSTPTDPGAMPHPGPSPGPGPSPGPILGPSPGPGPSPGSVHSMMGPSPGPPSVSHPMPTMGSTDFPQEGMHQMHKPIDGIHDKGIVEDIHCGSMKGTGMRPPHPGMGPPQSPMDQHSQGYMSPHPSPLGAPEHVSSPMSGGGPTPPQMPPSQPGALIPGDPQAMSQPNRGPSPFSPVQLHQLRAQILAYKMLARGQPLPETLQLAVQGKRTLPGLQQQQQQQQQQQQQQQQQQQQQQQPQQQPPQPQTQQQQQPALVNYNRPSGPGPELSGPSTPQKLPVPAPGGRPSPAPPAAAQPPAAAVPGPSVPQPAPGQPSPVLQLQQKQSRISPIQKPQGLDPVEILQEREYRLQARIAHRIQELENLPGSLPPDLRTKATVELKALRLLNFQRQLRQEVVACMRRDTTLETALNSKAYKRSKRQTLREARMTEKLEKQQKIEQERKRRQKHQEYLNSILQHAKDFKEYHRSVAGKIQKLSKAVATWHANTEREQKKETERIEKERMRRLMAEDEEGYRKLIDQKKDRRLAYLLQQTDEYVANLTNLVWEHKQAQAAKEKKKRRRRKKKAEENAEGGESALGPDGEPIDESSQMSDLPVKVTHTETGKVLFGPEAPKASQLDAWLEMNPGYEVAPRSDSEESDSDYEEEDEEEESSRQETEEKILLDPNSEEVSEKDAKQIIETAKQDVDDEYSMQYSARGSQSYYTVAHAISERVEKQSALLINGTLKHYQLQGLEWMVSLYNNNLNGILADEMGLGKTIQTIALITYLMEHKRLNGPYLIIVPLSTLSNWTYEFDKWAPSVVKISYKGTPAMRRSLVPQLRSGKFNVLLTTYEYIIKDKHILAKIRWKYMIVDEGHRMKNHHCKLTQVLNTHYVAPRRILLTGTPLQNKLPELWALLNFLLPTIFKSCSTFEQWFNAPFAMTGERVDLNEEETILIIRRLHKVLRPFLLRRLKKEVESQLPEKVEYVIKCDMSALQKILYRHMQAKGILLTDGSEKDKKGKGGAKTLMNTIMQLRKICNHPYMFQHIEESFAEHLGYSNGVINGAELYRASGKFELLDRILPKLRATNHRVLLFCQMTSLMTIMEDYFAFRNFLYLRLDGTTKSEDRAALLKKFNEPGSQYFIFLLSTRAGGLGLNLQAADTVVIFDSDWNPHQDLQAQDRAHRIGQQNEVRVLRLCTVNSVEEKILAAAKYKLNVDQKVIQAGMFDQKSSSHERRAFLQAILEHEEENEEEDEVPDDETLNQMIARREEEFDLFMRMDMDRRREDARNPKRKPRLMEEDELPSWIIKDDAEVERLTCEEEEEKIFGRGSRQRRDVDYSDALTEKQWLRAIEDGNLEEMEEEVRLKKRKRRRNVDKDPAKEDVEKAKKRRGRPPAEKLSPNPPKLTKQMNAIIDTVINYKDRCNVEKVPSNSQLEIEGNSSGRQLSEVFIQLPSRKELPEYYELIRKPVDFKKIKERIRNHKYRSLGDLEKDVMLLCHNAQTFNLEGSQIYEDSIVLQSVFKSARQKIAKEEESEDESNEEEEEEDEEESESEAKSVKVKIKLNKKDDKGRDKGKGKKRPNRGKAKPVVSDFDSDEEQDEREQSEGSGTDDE
Chain of SMARCA4 (P51532 whole entry): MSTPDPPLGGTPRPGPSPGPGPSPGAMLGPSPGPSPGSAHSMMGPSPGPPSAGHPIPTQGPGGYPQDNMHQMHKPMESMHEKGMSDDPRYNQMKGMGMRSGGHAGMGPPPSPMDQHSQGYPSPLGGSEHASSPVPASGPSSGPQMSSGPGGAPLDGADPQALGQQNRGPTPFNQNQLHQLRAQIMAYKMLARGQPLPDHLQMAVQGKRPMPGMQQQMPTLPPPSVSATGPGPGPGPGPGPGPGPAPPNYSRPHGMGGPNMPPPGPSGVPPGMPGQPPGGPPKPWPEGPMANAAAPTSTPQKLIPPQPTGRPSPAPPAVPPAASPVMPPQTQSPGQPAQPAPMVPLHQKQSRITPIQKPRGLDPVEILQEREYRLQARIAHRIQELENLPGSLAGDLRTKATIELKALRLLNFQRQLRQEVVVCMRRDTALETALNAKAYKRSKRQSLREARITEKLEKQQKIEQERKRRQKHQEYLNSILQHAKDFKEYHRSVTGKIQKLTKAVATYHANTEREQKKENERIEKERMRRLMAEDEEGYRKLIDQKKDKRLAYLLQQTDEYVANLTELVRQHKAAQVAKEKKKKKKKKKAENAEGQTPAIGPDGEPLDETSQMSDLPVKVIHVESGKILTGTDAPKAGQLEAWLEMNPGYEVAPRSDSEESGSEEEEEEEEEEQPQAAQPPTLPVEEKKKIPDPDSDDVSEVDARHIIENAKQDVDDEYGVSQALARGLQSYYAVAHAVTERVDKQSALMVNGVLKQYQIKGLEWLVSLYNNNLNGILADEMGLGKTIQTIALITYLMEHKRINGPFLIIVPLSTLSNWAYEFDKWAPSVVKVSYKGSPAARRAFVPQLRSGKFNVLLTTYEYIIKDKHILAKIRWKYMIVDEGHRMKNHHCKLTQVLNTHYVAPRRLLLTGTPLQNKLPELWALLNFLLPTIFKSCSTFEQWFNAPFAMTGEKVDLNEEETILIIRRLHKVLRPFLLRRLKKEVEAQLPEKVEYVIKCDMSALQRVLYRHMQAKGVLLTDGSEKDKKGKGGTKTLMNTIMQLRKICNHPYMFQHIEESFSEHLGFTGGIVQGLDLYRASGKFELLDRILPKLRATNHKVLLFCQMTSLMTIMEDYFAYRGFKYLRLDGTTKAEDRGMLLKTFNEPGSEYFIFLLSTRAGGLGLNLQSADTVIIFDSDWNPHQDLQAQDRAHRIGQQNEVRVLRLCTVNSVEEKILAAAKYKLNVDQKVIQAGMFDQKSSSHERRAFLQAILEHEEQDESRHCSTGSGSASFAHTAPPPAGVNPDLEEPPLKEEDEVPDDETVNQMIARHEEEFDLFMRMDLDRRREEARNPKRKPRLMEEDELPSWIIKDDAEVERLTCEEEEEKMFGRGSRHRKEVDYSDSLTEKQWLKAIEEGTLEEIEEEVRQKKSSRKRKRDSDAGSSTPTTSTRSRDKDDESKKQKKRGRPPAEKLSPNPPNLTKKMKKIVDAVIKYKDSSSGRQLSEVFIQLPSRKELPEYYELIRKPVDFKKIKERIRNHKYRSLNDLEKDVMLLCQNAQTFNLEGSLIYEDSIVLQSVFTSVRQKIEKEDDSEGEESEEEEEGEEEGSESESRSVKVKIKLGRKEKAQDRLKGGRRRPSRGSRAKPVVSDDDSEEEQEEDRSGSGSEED

For the molecule `Cc1ncsc1-c1ccc([C@H](CC(=O)N2CCC3(CCC(CN4CCC(c5ccc6c(c5)-n5c(nc(=O)c7c(Br)cccc75)C65CCCCC5)CC4)CC3)CC2)NC(=O)[C@@H]2C[C@@H](O)CN2C(=O)[C@@H](n2cc(C3CC3)nn2)C(C)(C)C)cc1` [Compound A142, (2S,4R)—N—((S)-3-(9-((4-(4′-bromo-5′-oxo-5′H-spiro[cyclohexane-1,7′-indolo[1,2-a]quinazolin]-10′-yl)piperidin-1-yl)methyl)-3-azaspiro[5.5]undecan-3-yl)-1-(4-(4-methylthiazol-5-yl)phenyl)-3-oxopropyl)-1-((S)-2-(4-cyclopropyl-1H-1,2,3-triazol-1-yl)-3,3-dimethylbutanoyl)-4-hydroxypyrrolidine-2-carboxamide], the DC50 at SMARCA4 (setting [1]) and on SMARCA2 (setting [3]) was < 10 nM in each case. The values for the Dmax on SMARCA4 (setting [2]) and on SMARCA2 (setting [3]) were 70 to 90% and > 90%, respectively.
Turning to `Cc1ncsc1-c1ccc([C@H](C)NC(=O)[C@@H]2C[C@@H](O)CN2C(=O)[C@@H](n2cc(C3(CN4CCC(c5ccc6c(c5)-n5c(nc(=O)c7c(Br)cccc75)C65CCCCC5)CC4)CC3)nn2)C(C)(C)C)cc1` [Compound A64, (2S,4R)-1-((S)-2-(4-(1-((4-(4′-bromo-5′-oxo-5′H-spiro[cyclohexane-1,7′-indolo[1,2-a]quinazolin]-10′-yl)piperidin-1-yl)methyl)cyclopropyl)-1H-1,2,3-triazol-1-yl)-3,3-dimethylbutanoyl)-4-hydroxy-N—((S)-1-(4-(4-methylthiazol-5-yl)phenyl)ethyl)pyrrolidine-2-carboxamide], the “SMARC A4 Hela HiBit Dmax(%)” value at SMARCA4 (setting [1]) is listed as “B (B (70-90% degradation))”. The half-maximal degradation concentration (DC50) (in general, the midpoint of the concentration-degradation curve) was 100 to 500 nM on SMARCA4 and < 100 nM on SMARCA2. Moreover, the “SMARC A2 Hela HiBit Dmax (%)” value on SMARCA2 (setting [3]) is listed as “A (A (>90% degradation))”.
As to `COC(=O)C1CCN(C[C@H](NC(=O)[C@@H]2C[C@@H](O)CN2C(=O)[C@@H](n2cc([C@H]3CC[C@H](CN4CCC(c5ccc6c(c5)-n5c(nc(=O)c7c(Cl)cccc75)C65CCCCC5)CC4)CC3)nn2)C(C)(C)C)c2ccc(-c3scnc3C)cc2)CC1` [Compound A153, methyl 1-((R)-2-((2S,4R)-1-((S)-2-(4-((1r,4S)-4-((4-(4′-chloro-5′-oxo-5′H-spiro[cyclohexane-1,7′-indolo[1,2-a]quinazolin]-10′-yl)piperidin-1-yl)methyl)cyclohexyl)-1H-1,2,3-triazol-1-yl)-3,3-dimethylbutanoyl)-4-hydroxypyrrolidine-2-carboxamido)-2-(4-(4-methylthiazol-5-yl)phenyl)ethyl)piperidine-4-carboxylate], the DC50 at SMARCA4 (setting [1]) was > 1000 nM; on SMARCA2 (setting [3]), < 10 nM. Moreover, the Dmax (commonly the greatest extent of degradation seen) at SMARCA4 (setting [2]) was 50 to 69%; at SMARCA2 (setting [3]) it was > 90%.
As to `Cc1ncsc1-c1ccc([C@H](CN2CCOCC2)NC(=O)[C@@H]2C[C@@H](O)CN2C(=O)[C@H](C2CCCCC2)n2cc([C@H]3CC[C@H](CN4CCC(c5ccc6c(c5)-n5c(nc(=O)c7c(Cl)cccc75)C6(C)C)CC4)CC3)nn2)cc1` [Compound A125, (2S,4R)-1-((S)-2-(4-((1r,4S)-4-((4-(4-chloro-7,7-dimethyl-5-oxo-5,7-dihydroindolo[1,2-a]quinazolin-10-yl)piperidin-1-yl)methyl)cyclohexyl)-1H-1,2,3-triazol-1-yl)-2-cyclohexylacetyl)-4-hydroxy-N—((R)-1-(4-(4-methylthiazol-5-yl)phenyl)-2-morpholinoethyl)pyrrolidine-2-carboxamide], the “SMARC A4 Hela HiBit DC50(nM)” value on SMARCA4 (setting [1]) was “No fit”. The Dmax on SMARCA4 (setting [2]) lay within 50 to 69%. For the same molecule, on SMARCA2 (setting [3]), the 50% degradation concentration (DC50) is < 10 nM and the Dmax was > 90%.
Regarding `Cc1ncsc1-c1ccc([C@H](C)NC(=O)[C@@H]2C[C@@H](O)CN2C(=O)[C@@H](n2cc(CCCN3CCC(c4ccc5c(c4)-n4c(nc(=O)c6c(Br)cccc64)C54CCCCC4)CC3)nn2)C(C)(C)C)cc1` [Compound A44, (2S,4R)-1-((S)-2-(4-(3-(4-(4′-bromo-5′-oxo-5′H-spiro[cyclohexane-1,7′-indolo[1,2-a]quinazolin]-10′-yl)piperidin-1-yl)propyl)-1H-1,2,3-triazol-1-yl)-3,3-dimethylbutanoyl)-4-hydroxy-N—((S)-1-(4-(4-methylthiazol-5-yl)phenyl)ethyl)pyrrolidine-2-carboxamide], the “SMARC A4 Hela HiBit Dmax(%)” value at SMARCA4 (setting [1]) is recorded as “B (B (70-90% degradation))”. Moreover, the half-maximal degradation concentration (DC50) on SMARCA4 and on SMARCA2 was < 100 nM each time. In addition, the “SMARC A2 Hela HiBit Dmax (%)” value at SMARCA2 (setting [3]) is given as “A (A (>90% degradation))”.
In the case of `Cc1ncsc1-c1ccc([C@H](CCCCCN2CCC(c3ccc4c(c3)C3(CCCCC3)c3nc(=O)c5c(Br)cccc5n3-4)CC2)NC(=O)[C@H]2C[C@H](O)CN2C(=O)[C@@H](n2cc(C3CC3)nn2)C(C)(C)C)cc1` [Compound A35, (2R,4S)—N—((S)-6-(4-(4′-bromo-5′-oxo-5′H-spiro[cyclohexane-1,7′-indolo[1,2-a]quinazolin]-9′-yl)piperidin-1-yl)-1-(4-(4-methylthiazol-5-yl)phenyl)hexyl)-1-((S)-2-(4-cyclopropyl-1H-1,2,3-triazol-1-yl)-3,3-dimethylbutanoyl)-4-hydroxypyrrolidine-2-carboxamide], the DC50 at SMARCA4 (setting [1]) and at SMARCA2 (setting [3]) was < 100 nM throughout. Further, the maximal degradation (Dmax) at SMARCA4 (Hela SMARCA4-HiBiT cells, 24 hours treatment, read-out: SMARC A4 Hela HiBit Dmax(%)) is > 90%; on SMARCA2 (setting [3]) it was > 90%.
On to `CC(=O)N1CCC([C@@H](C(=O)N2C[C@H](O)C[C@H]2C(=O)N[C@@H](C)c2ccc(-c3scnc3C)cc2)n2cc([C@H]3CC[C@H](CN4CCC(c5ccc6c(c5)-n5c(nc(=O)c7c(Cl)cccc75)C65CCCCC5)CC4)CC3)nn2)CC1` [Compound A111, (2S,4R)-1-((S)-2-(1-acetylpiperidin-4-yl)-2-(4-((1r,4S)-4-((4-(4′-chloro-5′-oxo-5′H-spiro[cyclohexane-1,7′-indolo[1,2-a]quinazolin]-10′-yl)piperidin-1-yl)methyl)cyclohexyl)-1H-1,2,3-triazol-1-yl)acetyl)-4-hydroxy-N—((S)-1-(4-(4-methylthiazol-5-yl)phenyl)ethyl)pyrrolidine-2-carboxamide], for which the half-maximal degradation concentration (DC50) is 10 to 100 nM at SMARCA4 (setting [1]) and < 10 nM at SMARCA2 (setting [3]). The Dmax on SMARCA4 (setting [2]) was 70 to 90%; on SMARCA2 (setting [3]) it was > 90%.
Taken in the same sequence, the figures for `Cc1ncsc1-c1ccc([C@H](CN2CCOCC2)NC(=O)[C@@H]2C[C@@H](O)CN2C(=O)[C@@H](n2cc([C@H]3CC[C@H](CN4CCC(c5ccc6c(c5)-n5c(nc(=O)c7c(Br)cccc75)C65CCCCC5)CC4)CC3)nn2)C(C)(C)O)cc1` [Compound A160, (2S,4R)-1-((S)-2-(4-((1r,4S)-4-((4-(4′-bromo-5′-oxo-5′H-spiro[cyclohexane-1,7′-indolo[1,2-a]quinazolin]-10′-yl)piperidin-1-yl)methyl)cyclohexyl)-1H-1,2,3-triazol-1-yl)-3-hydroxy-3-methylbutanoyl)-4-hydroxy-N-((R)-1-(4-(4-methylthiazol-5-yl)phenyl)-2-morpholinoethyl)pyrrolidine-2-carboxamide] were > 1000 nM, < 10 nM, 50 to 69% and > 90%.
`Cc1ncsc1-c1ccc([C@H](CN2CCOCC2)NC(=O)[C@@H]2C[C@@H](O)CN2C(=O)[C@H](C2CCOCC2)n2cc([C@H]3CC[C@H](CN4CCC(c5ccc6c(c5)-n5c(nc(=O)c7c(Br)cccc75)C65CCCCC5)CC4)CC3)nn2)cc1` [Compound A101, (2S,4R)-1-((S)-2-(4-((1r,4S)-4-((4-(4′-bromo-5′-oxo-5′H-spiro[cyclohexane-1,7′-indolo[1,2-a]quinazolin]-10′-yl)piperidin-1-yl)methyl)cyclohexyl)-1H-1,2,3-triazol-1-yl)-2-(tetrahydro-2H-pyran-4-yl)acetyl)-4-hydroxy-N-((R)-1-(4-(4-methylthiazol-5-yl)phenyl)-2-morpholinoethyl)pyrrolidine-2-carboxamide]: the DC50 on SMARCA4 (setting [1]) is 10 to 100 nM; on SMARCA2 (setting [3]), < 10 nM. For the same molecule, the Dmax on SMARCA4 (setting [2]) is 70 to 90%; at SMARCA2 (setting [3]), > 90%.
Turning to `Cc1ncsc1-c1ccc([C@H](C)NC(=O)[C@@H]2C[C@@H](O)CN2C(=O)[C@H](C2CCN(C)CC2)n2cc([C@H]3CC[C@H](CN4CCC(c5ccc6c(c5)-n5c(nc(=O)c7c(Cl)cccc75)C65CCCCC5)CC4)CC3)nn2)cc1` [Compound A110, (2S,4R)-1-((S)-2-(4-((1r,4S)-4-((4-(4′-chloro-5′-oxo-5′H-spiro[cyclohexane-1,7′-indolo[1,2-a]quinazolin]-10′-yl)piperidin-1-yl)methyl)cyclohexyl)-1H-1,2,3-triazol-1-yl)-2-(1-methylpiperidin-4-yl)acetyl)-4-hydroxy-N—((S)-1-(4-(4-methylthiazol-5-yl)phenyl)ethyl)pyrrolidine-2-carboxamide], the figures for the half-maximal degradation concentration (DC50) on SMARCA4 (setting [1]) and at SMARCA2 (setting [3]) were > 1000 nM and 10 to 100 nM, respectively. Also, the values for the maximal degradation (Dmax) on SMARCA4 (setting [2]) and at SMARCA2 (setting [3]) were 50 to 69% and > 90%, respectively.
